Reference: patent publication US10910085B2, “Methods of making polypeptides with non-standard amino acids using genomically recoded organisms” (President and Fellows of Harvard College, priority 2014, dated 2021)

Tests used:
[1] = system: genomically recoded organism (GRO); experiment: titration of optimal NSAA concentration by GFP_UAG fluorescence assay (FL/ODmax); format: cell-based, E. coli; conditions: GRO bearing synthetase/tRNA and GFP_UAG reporter plasmids; NSAA range 10 uM to 10 mM
Protocol: First, genomically recoded organisms (“GRO”) as described above were cultured in triplicate in LB-Lennox broth, across a dilution series from 1 uM to 10 mM (incl. 0 uM) NSAA in a 96-well plate. GRO growth (OD600) was kinetically monitored to quantify growth rates and reductions were measured as time to OD600=0.4 and Vmax (dODmax/dt). These experiments helped define the sub-toxic concentration range of an NSAA of interest. Second, the GRO strain was transformed with an L-arabinose-inducible plasmid bearing the synthetase/tRNA that are specific for the NSAA side chain reactivity being evaluated. See Lajoie, M. J. et al. Genomically recoded organisms expand biological functions. […] Only GROs will read these codons as sense codons, not terminate the GFP_UAG translation, and generate NSAA-containing GFP that fluoresces. Patent translation of GFP_UAG (e.g., fluorescence) requires culture in NSAA and transformation with a plasmid bearing the proper synthetase/tRNA pair to use that NSAA. In this way, GFP fluorescence can be a quantitative metric for NSAA-containing protein translation. […] Due to auto-fluorescence of LB-Lennox media, the cells were washed twice in phosphate-buffered saline (pH 7.2) by centrifugation at 4,000×g for 5 minutes. […] GFP translation was normalized by OD600 as fluorescence divided by OD600 when measured (FL/OD), and optimal concentration of NSAA was FL/ODmax.

[2] = system: genomically recoded organism (GRO); format: cell-based, E. coli; conditions: pAzF held constant at 1 mM; for reductions in FL/OD (GFP fluorescence divided by OD600): alkyne containing compound varied from 10 uM-10 mM, GRO culture; for reductions in OD consistent with reaction with pAzF: canonical amino acid controls
Excerpt: To meet the third criteria, NSAA expression using previously evolved amino acyl synthetase/tRNA pairs was used. Synthetases charge a cognate amino acid substrate onto the cognate tRNA pair. An amino acid, a synthetase, and a tRNA form a triad that is required to make that amino acid competent for translation and addition to the nascent polypeptide chain. Amino acid/synthetase/tRNA triads are generally specific thereby preserving the fidelity of the translation of genetic code into proteins. As such, new synthetase/tRNA pairs that function specifically with each other are generated and used to add new NSAAs to the genetic code (or to evaluate the bio-orthogonality of bond-forming NSAA candidates). Alternatively, known synthetase/tRNA pairs are used to evaluate the bio-orthgonality of bond-forming NSAA candidate pairs.
First, genomically recoded organisms (“GRO”) as described above were cultured in triplicate in LB-Lennox broth, across a dilution series from 1 uM to 10 mM (incl. 0 uM) NSAA in a 96-well plate. GRO growth (OD600) was kinetically monitored to quantify growth rates and reductions were measured as time to OD600=0.4 and Vmax (dODmax/dt). These experiments helped define the sub-toxic concentration range of an NSAA of interest. Second, the GRO strain was transformed with an L-arabinose-inducible plasmid bearing the synthetase/tRNA that are specific for the NSAA side chain reactivity being evaluated. See Lajoie, M. J. et al. Genomically recoded organisms expand biological functions. Science 342, 357-360, doi:10.1126/science.1241459 (2013) hereby incorporated by reference in its entirety. […] Only GROs will read these codons as sense codons, not terminate the GFP_UAG translation, and generate NSAA-containing GFP that fluoresces. Patent translation of GFP_UAG (e.g., fluorescence) requires culture in NSAA and transformation with a plasmid bearing the proper synthetase/tRNA pair to use that NSAA. In this way, GFP fluorescence can be a quantitative metric for NSAA-containing protein translation. […] Due to auto-fluorescence of LB-Lennox media, the cells were washed twice in phosphate-buffered saline (pH 7.2) by centrifugation at 4,000×g for 5 minutes. After the second wash, the cells were resuspended in 150 uL PBS for measurement of growth (OD600) and GFP fluorescence (excitation 388 nm, emission 510 nm) using a Biotek Synergy H1/H4 or a Molecular Devices M5 Spectrophotometer. GFP translation was normalized by OD600 as fluorescence divided by OD600 when measured (FL/OD), and optimal concentration of NSAA was FL/ODmax.
Once optimal NSAA concentration was determined, a candidate NSAA is tested to determine whether it impairs translation of the other cognate pair. […] After culture and washing as above, FL/OD was measured and plotted as a function of the NSAA being varied. […]

SMILES	reductions in FL/OD (GFP fluorescence divided by OD600) [2]	reductions in OD consistent with reaction with pAzF [2]	further results
[N-]=[N+]=Nc1ccc(C[C@H](N)C(=O)O)cc1 [pAzF, para-azido-phenylalanine]	–	–	optimal concentration of NSAA (FL/ODmax) [1]: 1 mM
C#CCONCC(=O)O [pPrG, propargyl-oxyglycine]	no reductions in FL/OD	–	–
N[C@@H](CO)C(=O)O [serine]	–	do not show any reductions in OD	–
N[C@@H](Cc1ccc(O)cc1)C(=O)O [tyrosine]	–	do not show any reductions in OD	–
C1#CCCCCCC1 [unsubstituted cyclo-octynes]	no reductions in FL/OD	–	–
